Assay results taken from ChEMBL document CHEMBL2401657, “Discovery of new PPARγ agonists based on arylopeptoids” (Bioorg Med Chem Lett, 2013).
Active and inactive are the calls of the source. The calls are words filed in the database; no cut-off is given here.

Columns and labels:
[1] = molecular target: Free fatty acid receptor 1 (Homo sapiens) (UniProt O14842); assay: Agonist activity at FFAR1 (unknown origin) assessed as induction of calcium mobilization at 10 uM by fluorescence assay; type: functional
[2] = molecular target: Free fatty acid receptor 1 (Homo sapiens) (UniProt O14842); assay: Antagonist activity at FFAR1 (unknown origin) assessed as inhibition of GW9508-induced calcium mobilization at 10 uM preincubated for 20 mins followed by GW9508 induction by fluorescence assay; type: functional
[3] = Cytotoxicity against mouse embryo fibroblasts; type: cell-based; conditions: fibroblast
[4] = molecular target: T1, Peroxisome proliferator-activated receptor gamma (Homo sapiens) (UniProt P37231); assay: Transactivation of human PPARgamma LBD transfected in mouse embryo fibroblasts at 100 uM after 18 hrs by Gal4-responsive luciferase reporter gene assay relative to rosiglitazone
T1 sequence (whole entry): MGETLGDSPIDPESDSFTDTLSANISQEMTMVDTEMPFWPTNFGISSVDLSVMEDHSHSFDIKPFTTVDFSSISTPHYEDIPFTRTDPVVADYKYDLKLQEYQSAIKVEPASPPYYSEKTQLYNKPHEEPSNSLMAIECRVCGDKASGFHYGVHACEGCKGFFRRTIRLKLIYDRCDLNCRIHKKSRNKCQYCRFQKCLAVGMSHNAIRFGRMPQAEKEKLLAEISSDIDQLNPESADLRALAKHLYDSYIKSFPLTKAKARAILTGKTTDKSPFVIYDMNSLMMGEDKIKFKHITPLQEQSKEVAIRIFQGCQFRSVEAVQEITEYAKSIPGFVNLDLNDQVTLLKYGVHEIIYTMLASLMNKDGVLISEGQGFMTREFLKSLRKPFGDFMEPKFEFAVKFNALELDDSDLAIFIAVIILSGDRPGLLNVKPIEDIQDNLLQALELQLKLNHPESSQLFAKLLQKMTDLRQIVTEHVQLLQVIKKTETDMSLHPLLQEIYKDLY

[5] = molecular target: T1, Peroxisome proliferator-activated receptor gamma (Homo sapiens); assay: Transactivation of human PPARgamma LBD transfected in mouse embryo fibroblasts at 100 uM after 18 hrs by Gal4-responsive luciferase reporter gene assay relative to vehicle-treated control
[6] = molecular target: T2, Peroxisome proliferator-activated receptor delta (Homo sapiens) (UniProt Q03181); assay: Transactivation of PPARdelta (unknown origin) relative to control
T2 sequence (whole entry): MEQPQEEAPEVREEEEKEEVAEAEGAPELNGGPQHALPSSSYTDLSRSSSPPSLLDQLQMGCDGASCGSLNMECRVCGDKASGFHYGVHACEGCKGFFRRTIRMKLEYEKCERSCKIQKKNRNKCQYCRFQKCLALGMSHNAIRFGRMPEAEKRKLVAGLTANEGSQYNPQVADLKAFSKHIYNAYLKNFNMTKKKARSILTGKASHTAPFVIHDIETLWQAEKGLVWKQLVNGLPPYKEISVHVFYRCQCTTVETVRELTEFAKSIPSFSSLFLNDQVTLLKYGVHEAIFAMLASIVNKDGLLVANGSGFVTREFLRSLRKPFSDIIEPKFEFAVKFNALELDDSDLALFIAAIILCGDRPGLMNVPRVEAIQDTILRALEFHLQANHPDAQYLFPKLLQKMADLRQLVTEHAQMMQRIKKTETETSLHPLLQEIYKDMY

[7] = molecular target: T3, Retinoic acid receptor RXR-alpha (Homo sapiens) (UniProt P19793); assay: Transactivation of RXRalpha (unknown origin) relative to control
T3 sequence (whole entry): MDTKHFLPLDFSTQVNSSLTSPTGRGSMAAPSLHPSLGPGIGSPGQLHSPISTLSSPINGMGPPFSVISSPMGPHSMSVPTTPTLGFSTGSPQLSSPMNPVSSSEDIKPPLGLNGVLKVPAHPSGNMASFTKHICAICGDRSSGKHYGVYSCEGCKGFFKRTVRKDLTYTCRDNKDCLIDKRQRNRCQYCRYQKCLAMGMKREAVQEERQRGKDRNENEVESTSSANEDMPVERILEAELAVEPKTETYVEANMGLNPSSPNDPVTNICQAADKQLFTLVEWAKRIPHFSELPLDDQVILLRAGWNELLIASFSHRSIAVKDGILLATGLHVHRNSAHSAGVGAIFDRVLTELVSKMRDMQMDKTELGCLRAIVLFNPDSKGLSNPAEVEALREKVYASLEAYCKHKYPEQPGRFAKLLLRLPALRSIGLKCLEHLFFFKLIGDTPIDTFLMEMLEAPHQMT

[8] = molecular target: T4, Peroxisome proliferator-activated receptor alpha (Homo sapiens) (UniProt Q07869); assay: Transactivation of PPARalpha (unknown origin) relative to control
T4 sequence (whole entry): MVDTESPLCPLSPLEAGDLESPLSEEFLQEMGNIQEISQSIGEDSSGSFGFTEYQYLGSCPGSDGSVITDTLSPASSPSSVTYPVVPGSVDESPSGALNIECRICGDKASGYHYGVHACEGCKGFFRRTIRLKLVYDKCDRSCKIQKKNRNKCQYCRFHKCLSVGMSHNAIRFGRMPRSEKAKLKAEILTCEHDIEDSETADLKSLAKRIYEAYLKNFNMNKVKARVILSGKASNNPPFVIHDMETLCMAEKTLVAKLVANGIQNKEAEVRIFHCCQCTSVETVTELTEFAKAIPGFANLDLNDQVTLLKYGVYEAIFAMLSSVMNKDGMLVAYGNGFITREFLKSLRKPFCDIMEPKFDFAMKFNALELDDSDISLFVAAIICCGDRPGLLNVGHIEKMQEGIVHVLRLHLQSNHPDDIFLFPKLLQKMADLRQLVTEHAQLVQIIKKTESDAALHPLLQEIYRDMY

[9] = molecular target: T5, Peroxisome proliferator-activated receptor gamma (Homo sapiens, UniProt P37231); assay: Binding affinity to GST-tagged human PPARgamma LBD by ligand displacement assay
T5 sequence (P37231 whole entry): T1 sequence (whole entry)

Free fatty acid receptor 1 (Homo sapiens), sequence (O14842 whole entry): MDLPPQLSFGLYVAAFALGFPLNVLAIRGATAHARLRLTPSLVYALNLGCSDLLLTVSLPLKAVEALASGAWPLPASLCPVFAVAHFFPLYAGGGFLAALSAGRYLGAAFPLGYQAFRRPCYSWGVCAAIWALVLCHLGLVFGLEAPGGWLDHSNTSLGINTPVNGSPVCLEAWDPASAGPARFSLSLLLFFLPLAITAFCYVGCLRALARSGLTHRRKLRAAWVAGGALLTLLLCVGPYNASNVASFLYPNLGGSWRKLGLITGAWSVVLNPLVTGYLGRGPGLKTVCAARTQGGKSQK

SMILES	Activity [1]	inhibition [2]	Activity [4] [%]	fold change (FC) [5]	fold change (FC) [6]	fold change (FC) [7]	fold change (FC) [8]	IC50 [9] [µM]	Activity [3]
CCN(Cc1cccc(C(=O)N(Cc2ccc(CCC(=O)O)cc2)C(C)C)c1)C(=O)c1ccccc1	inactive	inactive	11.8	5.8					Non-toxic
CC(C)N(Cc1cccc(C(=O)N(Cc2ccc(CCC(=O)O)cc2)C(C)C)c1)C(=O)c1ccccc1	inactive	inactive	10.7	5.3					Non-toxic
CCN(Cc1cccc(C(=O)N(CC)Cc2ccc(CCC(=O)O)cc2)c1)C(=O)c1ccccc1	inactive	inactive	20.9	11.2	< 2	< 2	> 2	56.2	Non-toxic
CC(C)N(Cc1cccc(C(=O)NCc2ccc(CCC(=O)O)cc2)c1)C(=O)c1ccccc1	inactive	inactive	18.4	7.3					Non-toxic
CCN(Cc1ccc(C(=O)N(Cc2ccc(CCC(=O)O)cc2)C(C)C)cc1)C(=O)c1ccccc1	inactive	inactive	11.6	6.9					Non-toxic
CC(C)N(Cc1ccc(C(=O)N(Cc2ccc(CCC(=O)O)cc2)C(C)C)cc1)C(=O)c1ccccc1	inactive	inactive	24.7	14.7					Non-toxic
CCN(Cc1ccc(CCC(=O)O)cc1)C(=O)c1cccc(CN(C(=O)c2ccccc2)C(C)C)c1	inactive	inactive	11.6	6.2					Non-toxic
CCN(Cc1ccc(CCC(=O)O)cc1)C(=O)c1ccc(CN(C(=O)c2ccccc2)C(C)C)cc1	inactive	inactive	6.9	3.6					Non-toxic
O=C(O)CCc1ccc(CNC(=O)c2cccc(CNC(=O)c3ccccc3)c2)cc1	inactive	inactive	14.1	5.6	< 2	< 2	< 2	62.7	Non-toxic
O=C(O)CCc1ccc(CNC(=O)c2ccc(CNC(=O)c3ccccc3)cc2)cc1	inactive	inactive	5.4	2.5					Non-toxic
CC(C)N(Cc1ccc(CCC(=O)O)cc1)C(=O)c1cccc(CNC(=O)c2ccccc2)c1	inactive	inactive	27.2	13.4	< 2	5	< 2	38.7	Non-toxic
CCN(Cc1ccc(C(=O)N(CC)Cc2ccc(CCC(=O)O)cc2)cc1)C(=O)c1ccccc1	inactive	inactive	13.8	7.3					Non-toxic

Now from value to molecule, other results behind:

Activity [1]	inhibition [2]	Activity [4] [%]	fold change (FC) [5]	fold change (FC) [6]	fold change (FC) [7]	fold change (FC) [8]	IC50 [9] [µM]	SMILES	Activity [3]
inactive	inactive	12.5	5.7					CC(C)N(Cc1ccc(C(=O)NCc2ccc(CCC(=O)O)cc2)cc1)C(=O)c1ccccc1	Non-toxic
inactive	inactive	11.8	6.2					CCN(Cc1ccc(CCC(=O)O)cc1)C(=O)c1ccc(CNC(=O)c2ccccc2)cc1	Non-toxic
inactive	inactive	21.2	12.6					CC(C)N(Cc1ccc(CCC(=O)O)cc1)C(=O)c1ccc(CNC(=O)c2ccccc2)cc1	Non-toxic
inactive	inactive	13.1	6					CCN(Cc1ccc(C(=O)NCc2ccc(CCC(=O)O)cc2)cc1)C(=O)c1ccccc1	Non-toxic
inactive	inactive	15.1	8.1					CCN(Cc1ccc(CCC(=O)O)cc1)C(=O)c1cccc(CNC(=O)c2ccccc2)c1	Non-toxic
inactive	inactive	23.5	9.3					CCN(Cc1cccc(C(=O)NCc2ccc(CCC(=O)O)cc2)c1)C(=O)c1ccccc1	Non-toxic
